# Measured values reported in patent US11414416B1, “Compounds and uses thereof” (Foghorn Therapeutics Inc., priority 2019, dated 2022).
# Molecular target: Nanoluciferase-BRD9 fusion protein (Homo sapiens (Human), UniProt Q9H8M2)
# Test: SYO1 BRD9 NanoLuc degradation assay
# Assay type: cell-based
# Conditions: Table 5B; SYO-1 cells expressing 3×FLAG-NLuc-BRD9, 6 hours; read-out: SYO1 BRD9-NanoLuc degradation IC50
# Method in brief: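 Degradation was read as loss of nanoluciferase signal (Nano-Glo) after 6 h compound exposure in a stable SYO-1 line carrying 3×FLAG-NLuc-BRD9 (8000 cells/well). Normalised between DMSO (high) and a 1 μM known BRD9 degrader (low).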
# Sequence of Nanoluciferase-BRD9 fusion protein (Q9H8M2 whole entry, the tested form may be a part): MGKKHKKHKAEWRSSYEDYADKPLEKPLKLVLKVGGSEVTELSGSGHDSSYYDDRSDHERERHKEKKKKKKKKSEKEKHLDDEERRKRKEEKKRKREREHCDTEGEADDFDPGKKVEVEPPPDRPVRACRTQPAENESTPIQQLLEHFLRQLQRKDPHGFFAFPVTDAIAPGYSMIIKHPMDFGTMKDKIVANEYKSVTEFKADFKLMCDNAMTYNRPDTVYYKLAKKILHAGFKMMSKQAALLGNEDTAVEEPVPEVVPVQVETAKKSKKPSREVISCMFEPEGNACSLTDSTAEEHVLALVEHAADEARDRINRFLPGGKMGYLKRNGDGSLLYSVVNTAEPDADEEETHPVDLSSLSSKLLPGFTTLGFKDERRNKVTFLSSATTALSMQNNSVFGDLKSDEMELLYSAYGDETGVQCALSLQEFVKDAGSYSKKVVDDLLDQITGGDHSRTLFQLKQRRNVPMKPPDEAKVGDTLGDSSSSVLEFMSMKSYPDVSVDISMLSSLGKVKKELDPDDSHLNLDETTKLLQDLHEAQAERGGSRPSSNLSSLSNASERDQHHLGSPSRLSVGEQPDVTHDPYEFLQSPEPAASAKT
row,SMILES,DC50 [nM]
1,COc1cc(-c2cn(C)c(=O)c3cnccc23)cc(OC)c1CN1CC(CC(=O)N2CCC3(CC(Oc4ccc5c(c4)C(=O)N([C@H]4CCC(=O)NC4=O)C5=O)C3)C2)C1 (stereo partly shown) [Compound D267],10 to 100
2,COc1cc(-c2cn(C)c(=O)c3cnccc23)cc(OC)c1CN1CCC2(C1)CN(CC#Cc1ccc3c(c1)C(=O)N(C1CCC(=O)NC1=O)C3=O)C2 (stereo not shown) [Compound D268],< 10
3,COc1cc(-c2cn(C)c(=O)c3cnccc23)cc(OC)c1CN1CCC2(C1)CN(C(=O)CCC#Cc1ccc3c(c1)C(=O)N(C1CCC(=O)NC1=O)C3=O)C2 (stereo not shown) [Compound D269],< 10
4,COc1cc(-c2cn(C)c(=O)c3cnccc23)cc(OC)c1Cn1cc(CN2CC(Oc3ccc4c(c3)C(=O)N(C3CCC(=O)NC3=O)C4=O)C2)nn1 (stereo not shown) [Compound D270],10 to 100
5,COc1cc(-c2cn(C)c(=O)c3cnccc23)cc(OC)c1Cn1cc(COC2CCN(c3ccc4c(c3)C(=O)N(C3CCC(=O)NC3=O)C4=O)CC2)nn1 (stereo not shown) [Compound D272],< 10
6,COc1cc(-c2cn(C)c(=O)c3cnccc23)cc(OC)c1CN(C)CCn1cc(CCOc2ccc3c(c2)C(=O)N(C2CCC(=O)NC2=O)C3=O)nn1 (stereo not shown) [Compound D274],< 10
7,COc1cc(-c2cn(C)c(=O)c3cnccc23)cc(OC)c1CN(C)CCn1cc(COCCOc2ccc3c(c2)C(=O)N(C2CCC(=O)NC2=O)C3=O)nn1 (stereo not shown) [Compound D275],< 10
8,COc1cc(-c2cn(C)c(=O)c3cnccc23)cc(OC)c1CN(C)CCn1cc(CN2CC(Oc3ccc4c(c3)C(=O)N(C3CCC(=O)NC3=O)C4=O)C2)nn1 (stereo not shown) [Compound D276],10 to 100
9,COc1cc(-c2cn(C)c(=O)c3cnccc23)cc(OC)c1CN1CCC(n2cc(CCOc3ccc4c(c3)C(=O)N(C3CCC(=O)NC3=O)C4=O)nn2)CC1 (stereo not shown) [Compound D279],< 10
10,COc1cc(-c2cn(C)c(=O)c3cnccc23)cc(OC)c1CN1CCC(n2cc(CN3CC(Oc4ccc5c(c4)C(=O)N(C4CCC(=O)NC4=O)C5=O)C3)nn2)CC1 (stereo not shown) [Compound D280],< 10
11,COc1cc(-c2cn(C)c(=O)c3cnccc23)cc(OC)c1CN(C)CCCn1cc(COc2ccc3c(c2)C(=O)N(C2CCC(=O)NC2=O)C3=O)nn1 (stereo not shown) [Compound D282],100 to 1000
12,COc1cc(-c2cn(C)c(=O)c3cnccc23)cc(OC)c1CN(C)CCCn1cc(CCOc2ccc3c(c2)C(=O)N(C2CCC(=O)NC2=O)C3=O)nn1 (stereo not shown) [Compound D283],100 to 1000
13,COc1cc(-c2cn(C)c(=O)c3cnccc23)cc(OC)c1CN(C)CCOCCn1cc(COc2ccc3c(c2)C(=O)N(C2CCC(=O)NC2=O)C3=O)nn1 (stereo not shown) [Compound D288],< 10
14,COc1cc(-c2cn(C)c(=O)c3cnccc23)cc(OC)c1CN1CCC(n2cc(COc3ccc4c(c3)C(=O)N(C3CCC(=O)NC3=O)C4=O)nn2)CC1 (stereo not shown) [Compound D289],< 10
15,COc1cc(-c2cn(C)c(=O)c3cnccc23)cc(OC)c1CN1CCC(n2cc(COCCOc3ccc4c(c3)C(=O)N(C3CCC(=O)NC3=O)C4=O)nn2)CC1 (stereo not shown) [Compound D290],< 10
16,COc1cc(-c2cn(C)c(=O)c3cnccc23)cc(OC)c1CN(C)CCOCCn1cc(CCOc2ccc3c(c2)C(=O)N(C2CCC(=O)NC2=O)C3=O)nn1 (stereo not shown) [Compound D292],100 to 1000
17,COc1cc(-c2cn(C)c(=O)c3cnccc23)cc(OC)c1CN(C)CCOCCn1cc(COCCOc2ccc3c(c2)C(=O)N(C2CCC(=O)NC2=O)C3=O)nn1 (stereo not shown) [Compound D293],10 to 100
18,COc1cc(-c2cn(C)c(=O)c3cnccc23)cc(OC)c1CN(C)CCOCCn1cc(CN2CC(Oc3ccc4c(c3)C(=O)N(C3CCC(=O)NC3=O)C4=O)C2)nn1 (stereo not shown) [Compound D294],100 to 1000
19,COc1cc(-c2cn(C)c(=O)c3cnccc23)cc(OC)c1CN1CC(n2cc(COc3ccc4c(c3)C(=O)N(C3CCC(=O)NC3=O)C4=O)nn2)C1 (stereo not shown) [Compound D297],< 10
20,COc1cc(-c2cn(C)c(=O)c3cnccc23)cc(OC)c1CN1CC(n2cc(CCOc3ccc4c(c3)C(=O)N(C3CCC(=O)NC3=O)C4=O)nn2)C1 (stereo not shown) [Compound D298],< 10
21,COc1cc(-c2cn(C)c(=O)c3cnccc23)cc(OC)c1CN1CC(n2cc(COCCOc3ccc4c(c3)C(=O)N(C3CCC(=O)NC3=O)C4=O)nn2)C1 (stereo not shown) [Compound D299],< 10
22,COc1cc(-c2cn(C)c(=O)c3cnccc23)cc(OC)c1CN1CC(n2cc(COC3CN(c4ccc5c(c4)C(=O)N(C4CCC(=O)NC4=O)C5=O)C3)nn2)C1 (stereo not shown) [Compound D301],< 10
23,COc1cc(-c2cn(C)c(=O)c3cnccc23)cc(OC)c1CN1CCC(CN2CCC3(CC2)CC(Oc2ccc4c(c2)C(=O)N(C2CCC(=O)NC2=O)C4=O)C3)CC1 (stereo not shown) [Compound D304],< 10

# Continued, values first:
row,DC50 [nM],SMILES
1,10 to 100,COc1cc(-c2cn(C)c(=O)c3cnccc23)cc(OC)c1CN1CC(CC(=O)N2CCC3(CC(Oc4ccc5c(c4)C(=O)N([C@@H]4CCC(=O)NC4=O)C5=O)C3)C2)C1 (stereo partly shown) [Compound D266]
2,< 10,COc1cc(-c2cn(C)c(=O)c3cnccc23)cc(OC)c1Cn1cc(COC2CN(c3ccc4c(c3)C(=O)N(C3CCC(=O)NC3=O)C4=O)C2)nn1 (stereo not shown) [Compound D271]
3,< 10,COc1cc(-c2cn(C)c(=O)c3cnccc23)cc(OC)c1CN(C)CCn1cc(COC2CN(c3ccc4c(c3)C(=O)N(C3CCC(=O)NC3=O)C4=O)C2)nn1 (stereo not shown) [Compound D277]
4,10 to 100,COc1cc(-c2cn(C)c(=O)c3cnccc23)cc(OC)c1CN(C)CCn1cc(COC2CCN(c3ccc4c(c3)C(=O)N(C3CCC(=O)NC3=O)C4=O)CC2)nn1 (stereo not shown) [Compound D278]
5,10 to 100,COc1cc(-c2cn(C)c(=O)c3cnccc23)cc(OC)c1CN1CCC(n2cc(COC3CCN(c4ccc5c(c4)C(=O)N(C4CCC(=O)NC4=O)C5=O)CC3)nn2)CC1 (stereo not shown) [Compound D281]
6,10 to 100,COc1cc(-c2cn(C)c(=O)c3cnccc23)cc(OC)c1CN(C)CCCn1cc(COCCOc2ccc3c(c2)C(=O)N(C2CCC(=O)NC2=O)C3=O)nn1 (stereo not shown) [Compound D284]
7,100 to 1000,COc1cc(-c2cn(C)c(=O)c3cnccc23)cc(OC)c1CN(C)CCCn1cc(CN2CC(Oc3ccc4c(c3)C(=O)N(C3CCC(=O)NC3=O)C4=O)C2)nn1 (stereo not shown) [Compound D285]
8,10 to 100,COc1cc(-c2cn(C)c(=O)c3cnccc23)cc(OC)c1CN(C)CCCn1cc(COC2CN(c3ccc4c(c3)C(=O)N(C3CCC(=O)NC3=O)C4=O)C2)nn1 (stereo not shown) [Compound D286]
9,< 10,COc1cc(-c2cn(C)c(=O)c3cnccc23)cc(OC)c1CN(C)CCCn1cc(COC2CCN(c3ccc4c(c3)C(=O)N(C3CCC(=O)NC3=O)C4=O)CC2)nn1 (stereo not shown) [Compound D287]
10,< 10,COc1cc(-c2cn(C)c(=O)c3cnccc23)cc(OC)c1CN1CCC(n2cc(COC3CN(c4ccc5c(c4)C(=O)N(C4CCC(=O)NC4=O)C5=O)C3)nn2)CC1 (stereo not shown) [Compound D291]
11,100 to 1000,COc1cc(-c2cn(C)c(=O)c3cnccc23)cc(OC)c1CN(C)CCOCCn1cc(COC2CN(c3ccc4c(c3)C(=O)N(C3CCC(=O)NC3=O)C4=O)C2)nn1 (stereo not shown) [Compound D295]
12,< 10,COc1cc(-c2cn(C)c(=O)c3cnccc23)cc(OC)c1CN1CC(n2cc(CN3CC(Oc4ccc5c(c4)C(=O)N(C4CCC(=O)NC4=O)C5=O)C3)nn2)C1 (stereo not shown) [Compound D300]
13,< 10,COc1cc(-c2cn(C)c(=O)c3cnccc23)cc(OC)c1CN1CC(n2cc(COC3CCN(c4ccc5c(c4)C(=O)N(C4CCC(=O)NC4=O)C5=O)CC3)nn2)C1 (stereo not shown) [Compound D302]
14,10 to 100,COc1cc(-c2cn(C)c(=O)c3cnccc23)cc(OC)c1Cn1cc(COCCOc2ccc3c(c2)C(=O)N(C2CCC(=O)NC2=O)C3=O)nn1 (stereo not shown) [Compound D303]
